Read-outs that look alike come from different tables or passages of the source. Where a SMILES comes first, the peptide text is derived from it.
Columns and labels:
HLA-DRB1*0101 = target: T1, HLA-DRB1*0101 (Homo sapiens, UniProt P01903+P01911, A100R/D57E/F55L/F60I/F76Y/I96L/L162R/M171V/P40L/Q125E/R42F/V115G/Y59C); experiment: biochemical; type: binding
T1 construct: purchased
Experimental: (§1) The binding assay conducted by EpiVax yields an indirect measure of peptide-MHC affinity as it utilizes a competition assay format per the methodology described in Steere et al. ([35]). […] Post incubation, the mixtures are moved to a 96-well plate coated with anti-HLA-DR antibody to capture HLA-peptide complexes. Time-resolved fluorescence measurement of the bound labeled reference peptide complex present in each mixture is detected with a europium-linked probe via fluorescent spectrophotometry using a SpectraMax M5 system. HLA binding affinity of each test peptide is expressed as the percent inhibition of reference peptide binding. Percent inhibition values (across the test peptide titration range) are used to calculate the half maximal inhibitory concentration (IC50) of each test peptide. For these studies, test peptides were assessed using a range of final concentrations from 100,000 nM to 100 nM. The panel of commercially-available HLA-DRB1 allele monomers used includes: *0101, *0301, *0401, *0701, *0801, *1101, *1301 and *1501. EpiVax established HLA-DRB1 binding affinity cutoffs were used to rank the IC50 values.
(§2) In vitro HLA binding assays (step 2 of workflow shown in Figure 1 ) were carried out with the synthesized peptides to verify the EpiMatrix outputs and provide a measure of accuracy for comparing in silico-predicted HLA-DRB1 allele binding to laboratory assessments of HLA-DRB1 allele binding. These assessments were conducted using a competition assay format whereby IC50 values were calculated based on the ability of the test peptide to compete with a labeled, high binding affinity reference peptide for HLA-DRB1 molecule binding. Sequences for the high affinity reference peptides and the negative control peptide, known not to bind any of the HLA-DRB1 molecules, are provided in Table S18 .

HLA-DRB1*0701 = HLA-DRB1*0701 (Homo sapiens, UniProt P01903+P01911, A100R/A102G/A103Q/D57E/D86V/E43K/F76Y/K127E/L162R/M171V/P40G/Q125H/Q99D/R33Q/R42Y/R54Q/S133A/S66F/T210M/V115G/Y107V/Y59L/Y89S); experiment: biochemical; type: binding
Experimental: as §1, §2

HLA-DRB1*1301 = HLA-DRB1*1301 (Homo sapiens, UniProt P01903+P01911, A100E/A169T/K41T/L162R/M171V/P40S/Q125H/Q178H/Q39Y/Q99D/R42S/S66N/T262R/W38E/Y61H); experiment: biochemical; type: binding; settings: read-out: DRB1*1301 IC50
Experimental: as §1, §2

HLA-DRB1*1501 = target: T2, HLA-DRB1*1501 (Homo sapiens, UniProt P01903+P01911); experiment: biochemical; type: binding
T2 construct: purchased
Experimental: as §1, §2

HLA-DRB1*0801 = HLA-DRB1*0801 (Homo sapiens, UniProt P01903+P01911, A100R/A103L/A169T/D86S/F76Y/H45Y/I96F/K41T/L162R/M171V/P40S/Q125H/Q178H/Q39Y/Q99D/R218S/R42G/S66Y/V115G/W38E); experiment: biochemical; type: binding
Experimental: as §1, §2

HLA-A*0201 = HLA-A*0201 (Homo sapiens, UniProt P04439, D140Y/D185E/D98H/E176V/E277Q/G131W/G231S/I119V/I121R/I166T/I218V/L300P/L318F/N151K/N90K/P208A/P217A/Q86G/Q94H/R138H/R169H/T345S); experiment: In vitro class I HLA binding assay (fluorescence polarization competition); settings: allele A*0201; fluorescence polarization competition; read-out: IC50 (nM), in vitro HLA binding affinity
Experimental: A cell-free class I HLA binding assay that allows for in vitro quantification of peptide-HLA binding affinity in a competition format was used. In this assay, a fluorescently labeled, high binding, control peptide is loaded onto 384-well ½-area plates along with unlabeled experimental peptides. To remove endogenous peptides and render the HLA A and B molecules receptive to binding, HLA is heated at 53°C for 15 minutes and immediately added to the assay. The mixture is then allowed to stand for three days. Once the mixture has reached steady equilibrium (at 72 hours), displacement of the high binding control peptide is measured through fluorescence polarization. Binding of experimental peptides is expressed as the percent inhibition of the labeled control peptide (experimental fluorescence / control fluorescence, multiplied by 100). The percent inhibition values for each experimental peptide (across a range of molar concentrations) are used to calculate the concentration which inhibits 50% of the labeled control peptide’s specific binding. This value is referred to as the peptide’s IC50.

`CC[C@H](C)[C@H](NC(=O)[C@H](CCSC)NC(=O)[C@H](CO)NC(=O)[C@H](C)N)C(=O)N[C@@H](CCCCN)C(=O)N[C@@H](CO)C(=O)N[C@@H](C)C(=O)N[C@@H](Cc1ccccc1)C(=O)N[C@@H](CC(C)C)C(=O)N1CCC[C@H]1C(=O)N[C@H](C(=O)NCC(=O)N[C@@H](C)C(=O)N[C@@H](Cc1ccccc1)C(=O)N[C@@H](CCCCN)C(N)=O)[C@@H](C)O` [AMA1_006B] (H-ASMIKSAFLPTGAFK-NH2) was tested. Which IC50 (HLA-DRB1*0101; binding inhibition assay, NB = non-binder (no dose-dependent inhibition), read-out: DRB1*0101 IC50) did it give?
The IC50 was 3220 nM.

What about the IC50 (HLA-DRB1*0701; binding inhibition assay, NB = non-binder (no dose-dependent inhibition), read-out: DRB1*0701 IC50) of the same molecule?
Its IC50 is 1520 nM.

What about the IC50 (HLA-DRB1*1301; binding inhibition assay, NB = non-binder (no dose-dependent inhibition)) of the same molecule?
The IC50 was > 100000 nM.

And the IC50 (HLA-DRB1*1501; binding inhibition assay, NB = non-binder (no dose-dependent inhibition), read-out: DRB1*1501 IC50)?
The IC50 was 14500 nM.

How did the IC50 (HLA-DRB1*0101) turn out when `CC[C@H](C)[C@H](NC(=O)[C@H](CCSC)NC(=O)[C@H](CO)NC(=O)[C@H](C)NC(=O)[C@H](CC(N)=O)NC(=O)[C@H](CCCCN)NC(=O)[C@H](CC(N)=O)NC(=O)[C@H](CCCCN)NC(=O)[C@H](Cc1ccccc1)NC(=O)CNC(=O)[C@H](CCC(=O)O)NC(=O)[C@H](CCCCN)NC(C)=O)C(=O)N[C@@H](CCCCN)C(=O)N[C@@H](CO)C(=O)N[C@@H](C)C(=O)N[C@@H](Cc1ccccc1)C(=O)N[C@@H](CC(C)C)C(=O)N1CCC[C@H]1C(=O)N[C@H](C(=O)NCC(=O)N[C@@H](C)C(=O)N[C@@H](Cc1ccccc1)C(=O)N[C@@H](CCCCN)C(N)=O)[C@@H](C)O` [AMA1_006C] (Ac-KEGFKNKNASMIKSAFLPTGAFK-NH2) was run?
Its IC50 is 1200 nM.

What about the IC50 (HLA-DRB1*0701) of the same molecule?
Its IC50 is 1290 nM.

And the IC50 (HLA-DRB1*0801)?
The IC50 was 50400 nM.

And the IC50 (HLA-DRB1*1301)?
Its IC50 is > 100000 nM.

What about the IC50 (HLA-DRB1*1501) of the same molecule?
The IC50 was 2040 nM.

With `CC[C@H](C)[C@H](NC(=O)[C@H](CO)NC(=O)[C@H](CO)NC(=O)[C@H](Cc1ccccc1)NC(=O)[C@H](CC(C)C)NC(=O)[C@@H](N)CC(N)=O)C(=O)N[C@@H](CCC(=O)O)C(=O)N[C@H](C(=O)N[C@H](C(=O)O)C(C)C)[C@@H](C)CC` [AMA1_092] (H-NLFSSIEIV-OH) as the molecule, how does the IC50 (HLA-A*0201) read?
Its IC50 is 1550 nM.

With `CSCC[C@H](NC(=O)[C@H](Cc1ccc(O)cc1)NC(=O)[C@H](CCC(=O)O)NC(=O)[C@@H](NC(=O)[C@H](Cc1c[nH]c2ccccc12)NC(=O)[C@@H]1CCCN1C(=O)[C@H](CC(N)=O)NC(=O)CNC(=O)[C@H](CCSC)NC(=O)[C@@H](N)Cc1ccc(O)cc1)[C@@H](C)O)C(=O)O` [AMA1_105] (H-YMGNPWTEYM-OH) as the molecule, how does the IC50 (HLA-A*0201) read?
Its IC50 is 21400 nM.
